In brackets after ≈: the same amount, converted by molar mass.
Experiments:
SKBR3 cells = test: Western blot, autophagy- and iron metabolism-related proteins, SKBR3; type: cell-based, human
Procedure: (§1) Western Blotting (autophagy- and iron metabolism-related proteins): Cells were grown in DMEM supplemented with 10% FBS and 1×PEST (Penicillin and streptomycin antibiotics) at 37° C. in incubator having humidified atmosphere with 5% CO2. The media were removed and cells were washed twice with 1× cold PBS. Cells lysis was performed with RIPA lysis buffer containing (150 mM sodium chloride, 1.0% NP-40, 0.1% SDS, 50 mM Tris pH 8.0, 0.5% sodium deoxycholate supplemented with protease inhibitors cocktail). Cells were kept on icebox during the lysis process. Cold lysis buffer was added to each well directly and then cells were scraped and collected in 1.5 ml Eppendorf tube. Cell lysis was kept on icebox for 20 minutes and then centrifuged at 4° C. for 10 minutes. The supernatant was collected and the pellet was discarded. After, protein quantification, samples were boiled in 5× loading buffer at 95° C. for 5 minutes. After completion of the gel running and transfer process, the membrane was stained with ponceau solution. After that, the membrane was washed with 1×TBST and then blocked in 5% non-fat dry milk for 1 hr at room temperature. The membrane was washed 3 times with 1×TBST and then incubated with indicated primary antibodies at 4° C. overnight. Primary antibodies were removed; the membrane was washed 3 times with 1×TBST and then incubated with secondary antibodies for 2 h at room temperature. Secondary antibodies were diluted in 5% non-fat dry milk in 1× TB ST. After removal of the secondary antibody, the membrane was washed 3 times with 1×TBST. The membrane was incubated in ECL solution and the signal was developed using Gel Doc system from Biorad.

Hela cells = test: Western blot, autophagy- and iron metabolism-related proteins, Hela; type: cell-based, human
Procedure: as §1

SKOV3 = test: MTT cell viability, SKOV3; type: cell-based; settings: Homo sapiens, SK-OV-3; 48 h of drug treatment; average of three experiments
Procedure: (§2) Cell viability studies: Cell viability was assessed using the MTT assay as described before. In brief, all cancer cell lines were seeded at a density of 4×10^4/well in 96 well flat-bottom plates. After 24 h from seeding, cells were treated with the synthesized compounds and left for an incubation period of 48 h. Upon reaching the indicated time point, the media was removed and replaced with 200 μL fresh media containing 0.5 mg/mL of MTT tetrazolium dye (Sigma-Aldrich). Cells were then incubated with MTT solution for 2 h at 37° C. The resultant formazan crystals were dissolved in 200 μl/well of DMSO and absorbance was measured at 570 nm using a microplate reader (Thermo Scientific).

JIMT1 = test: MTT cell viability, JIMT1; type: cell-based; settings: Homo sapiens, JIMT-1; breast cancer; 48 h of drug treatment; average of three experiments
Procedure: as §2

SKBR3 and SKOV3 = test: Crystal violet and DAPI staining; type: cell-based, human; settings: compared to compounds 1d and 1k; 48 h
Procedure: Colony formation assay: Human Normal epithelial cells, SKBR3, and SKOV3 cells were treated with 1d, 1e and 1k compounds with indicated concentrations for 48 h. Then cells were fixed with colony fixation solution (Acetic acid/Methanol (1:7) vol/vol) at room temperature. 15 minutes later fixation solution was removed and cells were washed again carefully with 1×PBS. Cells were stained with 0.5% crystal violet at room temperature for 20 minutes. Crystal violet was removed and cells were washed carefully 3 times with distilled water to remove excess dye. Colony growth was visualized by crystal violet staining. DAPI staining: SKBR3 and SKOV3 cells were treated with indicated compounds. After 48 h of treatment, the media were removed from cell lines and cells were washed with 1× cold PBS. Cells were fixed with (Acetic acid/Methanol (1:7) vol/vol)) solution for 15 minutes at RT and then washed with 1× cold PBS. Permeabilization was performed with 0.1% Triton X-100 for 5 minutes and then cells were washed with 1× cold PBS. Cells were stain with DAPI solution for 15 minutes at RT and then cells were washed 3 times with 1× cold PBS. Images were taken using a fluorescence microscope.

6 MRSA strains = test: MIC, panel of 6 MRSA strains; type: cell-based; settings: Staphylococcus aureus, across the panel of tested Gram-positive strains, read-out: MIC against all the 6 MRSA strains
Procedure: Antibacterial activity: The compounds were tested for the minimum inhibitory concentrations (MIC), which is the lowest concentration of a chemical required to inhibit visible microbial growth following overnight incubation. MIC values were determined using broth microdilution method according to the Clinical and Laboratory Standards Institute guidelines (CLSI, 2015, M07-A10). Mueller-Hinton broth was used as a culture medium in all the experiments. Exponentially growing bacterial cells were prepared in Mueller-Hinton broth at a concentration of approximately 5×10^5 CFU/mL. Two-fold serial dilutions of the test compound (8 concentrations ranged between 100-0.78 μg/mL) were tested. […] In each experiment, solvent (DMSO) was used as a negative control, un-treated control (composing of bacteria in Mueller-Hinton broth) was used as a growth control, blank (culture media alone) was used as sterility control. The 96-well microplate with the test compounds was incubated overnight at 37° C. Turbidity in wells indicated bacterial growth.
The compounds were tested on six MDR Gram-positive bacteria including three clinical isolates of methicillin-resistant Staphylococcus aureus (MRSA-1, MRSA-2 and MRSA-3) and three reference MRSA strains (ATCC33591, ATCC33592 and ATCC700699). They were also tested on three MDR Gram-negative bacteria including New Delhi metallo-beta-lactamase (NDM-1) positive, carbapenem-resistant E. coli (ATCC BAA2469), extended-spectrum beta-lactamase (ESBL) producing, colistin-resistant E. coli (CDC-AR-0346) and carbapenem-resistant Acinetobacter baumannii (ATCC BAA1605), in addition to two non-MDR bacteria from the same species, namely E. coli (ATCC 25922) Acinetobacter baumannii (ATCC 19606).

HCT-116 cells = test: Western blot, apoptotic biomarkers, tumor suppressor genes and oncogenes, HCT-116; type: cell-based, human; settings: for PARP cleavage / Cleavage of caspase7 and caspase-3 / Levels of p53 proteins / c-Myc oncogene level: HCT-116; for PARP cleavage / Cleavage of caspase7 and caspase-3: 1 to 4 μM, 48 h; for Cleavage of caspase7 and caspase-3: clear at 4 μM; for Levels of p53 proteins: at higher concentrations; for c-Myc oncogene level: dose-dependent manner; for Levels of BAX: treated cells, parallel to decreased p53
Procedure: Western blotting (apoptotic biomarkers, tumor suppressor genes and oncogenes): Hep3B and HCT-116 cells were treated with 1f and 1h compounds with increasing concentrations from 1 to 4 μM for 48 h. After reaching the time point, proteins were extracted from the collected cells after their lyses, and protein quantification was performed using a Detergent compatible (DC) protein assay kit (Bio-Rad) following the manufacturer's instructions. 12% SDS-polyacrylamide gels were used to separate the proteins, following the proteins were transferred onto nitrocellulose membrane using a semi-dry transfer cell. After transfer, membranes were incubated with primary antibodies and the incubation was left overnight at 4° c. The following antibodies were implicated: anti-β actin (Cell Signalling #4970), anti-caspase3 (Cell Signalling #14220), anti-caspase-7 (Cell Signalling33 #9492), anti-PARP (Cell Signalling #9532), anti-P53 (Cell Signalling #2527), anti-C-myc (Cell Signalling #18583), and anti-BAX (#5023). Finally, membranes were incubated with secondary conjugated with horseradish peroxidase. The indicated proteins were detected by chemiluminescence.

`FC(F)(F)c1ccc(N/N=C2\C=C[C@@]3(CC2)CC[C@@H]2NCCc4c2n3c2ccccc42)cc1` (racemic) [Compound 1e] was tested, and the “Expression of BECLIN-1” value (SKBR3 cells) was “induced”, the “Expression of Ferritin (FTH1)” value (SKBR3 cells) was “induced” and the “Expression of LC3B1/II” value (SKBR3 cells) was “induced”. For the same compound, the “Expression of pH2AX” value (SKBR3 cells) was “induced”, the “Expression and metabolism of autophagy marker LC3B1/II” value (Hela cells) was “upregulate” and the “Expression of Ferritin heavy chain (FTH1)” value (Hela cells) was “inhibits”. The “Expression of cell cycle marker CDK6” value (Hela cells) was “inhibits”, the “Expression of cellular iron exporter protein Ferroportin (FPN)” value (Hela cells) was “inhibits” and the IC50 (SKOV3) was 3.84 ± 0.21 µM. The IC50 (JIMT1) was 3.08 ± 0.14 µM and the “Nuclear damage in cancer cell lines (DAPI staining)” value (SKBR3 and SKOV3) was “greater levels of nuclear damage”.

With `Cc1ccc2c(c1)c1c3n2[C@@]2(C=C/C(=N\Nc4ccc(C(F)(F)F)cc4)CC2)CC[C@@H]3NCC1` [Compound 1h] the MIC (6 MRSA strains) was 1.56 µg/mL (≈ 3.36 µM), the PARP cleavage (HCT-116 cells) was “PARP cleavage” and the “Cleavage of caspase7 and caspase-3” value (HCT-116 cells) was “cleavage”. For the same compound, the “Levels of p53 proteins” value (HCT-116 cells) was “decreased”, the c-Myc oncogene level (HCT-116 cells) was “downregulate” and the “Levels of BAX” value (HCT-116 cells) was “decreased levels”.

For `FC(F)(F)Oc1ccc(N/N=C2\C=C[C@@]3(CC2)CC[C@@H]2NCCc4c2n3c2ccccc42)cc1` [Compound 1f], the PARP cleavage (HCT-116 cells) was “PARP cleavage”, the “Cleavage of caspase7 and caspase-3” value (HCT-116 cells) was “cleavage” and the “Levels of p53 proteins” value (HCT-116 cells) was “decreased”. For the same compound, the c-Myc oncogene level (HCT-116 cells) was “downregulate” and the “Levels of BAX” value (HCT-116 cells) was “decreased levels”.

For `COc1ccc2c(c1)c1c3n2[C@@]2(C=C/C(=N\Nc4ccc(C(F)(F)F)cc4)CC2)CC[C@@H]3NCC1` [Compound 1k], the “Expression and metabolism of autophagy marker LC3B1/II” value (Hela cells) was “upregulate”, the “Expression of DNA damage marker pH2AX” value (Hela cells) was “induce” and the IC50 (SKOV3) was 4.68 ± 0.22 µM. The IC50 (JIMT1) was 3.49 ± 0.06 µM.
